# Results as given in US6245917A, “Crystalline sodium phenytoin monohydrate” (Warner-Lambert Company, priority 1999, dated 2001).
# How the values were obtained:
# [1] = Weight change under controlled humidity conditions, first study (SPM made by the toluene slurry); assay type: physicochemical
# Excerpt: Study of weight change under controlled humidity conditions, samples were placed in open vials, which were placed in closed controlled-humidity jars. Relative humidities were controlled using saturated aqueous salt solutions: 58% RH, NaBr; 75% RH, (NH4)2 SO4; 76%, sodium acetate; 84% RH, KBr. Water uptake/loss characteristics of SPM and SPA were compared. Samples were kept at ambient temperature under various relative humidities (RHs) and were periodically weighed. […] The fact that SPM loses significant mass under even high humidity conditions is inconsistent with the loss of only water.
# [2] = DSC and TGA thermal analyses; assay type: physicochemical
# Procedure: Differential scanning calorimetry (DSC) experiments were performed on a Dupont DSC 2000 and thermogravimetric analyses (TGA) were performed on a Dupont TGA 2000. Nitrogen was used as the purge gas and heating rates were 10° C./minute. Standards were run prior to sample analyses; Sn for DSC and calcium oxalate for TGA.
# (§1) Both SPM and SPA were analyzed by x-ray powder diffraction (XRPD), infrared (IR) spectroscopy, solid-state nuclear magnetic resonance (SSNMR) spectroscopy, differential scanning calorimetry (DSC) and thermogravimetric analysis (TGA). The XRPD patterns of SPM and SPA are quite different and distinguishable. While the IR and SSNMR spectra of SPM and SPA are different, the differences are subtle. SPM and SPA behave quite differently on both DSC and TGA thermal analyses. SPA undergoes endothermic transitions at 364° C. and 409° C. that are accompanied by a weight loss of 72%.
# [3] = Intrinsic dissolution in 90% ethanol/10% water; assay type: physicochemical; settings: for concentration, average: average of runs
# Procedure: (§2) Dissolutions were carried out in a standard Van-Kel dissolution bath. The medium was either water, 90% water/10% ethanol, or 95% water/5% ethanol. For nonintrinsic dissolution experiments, SPM and SPA powders were sieved and fractions that passed through a 75 μm sieve were used. For intrinsic dissolution experiments, tablets were prepared in a standard Woods apparatus by compression of 400 mg of material at 3000 psig for 1 minute.
# (§3) Each experiment was carried out by placing 900 mL of medium into one of the Van-Kel dissolution vessels and allowing it to equilibrate at 37° C. The test materials were added (powder or tablet) and samples were withdrawn by syringe at the specified times (see Table 4). Each sample was filtered through a 0.2μ nylon syringe filter. Three dissolution experiments were carried out for each lot of suspension.
# (§4) For intrinsic dissolution experiments, the test material is compressed into a tablet and the tablet (still in the die) is lowered into the dissolution medium. In this way, a consistent surface area, the tablet face, is presented to the medium. […] Therefore, tablets of SPM and SPA were prepared, removed from the die, crushed into powders, and examined by XRPD.
# Intrinsic dissolution experiments were then carried out in 90% ethanol/10% water. The tablets dissolved very quickly in this medium, resulting in rapid deformation of the tablet faces. Occasionally pieces of solid broke free of the tablets and sank to the bottom of the dissolution vessel. Within 15-40 minutes the tablets had dissolved completely. Because of this behavior, consistent surface areas were not maintained during the course of the experiments. The result was a high degree of imprecision in the concentrations measured (Table 6).
# (§5) Samples were analyzed by high-performance liquid chromatography (HPLC) on a BAS 480 HPLC system equipped with a UV/VIS detector and a TSP AS 100 autosampler, and controlled with INJECT software. A Phenomenex Hypersil C18 BDS column (5μ particle size, 4.6×150 mm) was used. The mobile phase was prepared by mixing water, methanol, and acetic acid in a 60:40:0.5 volume ratio. Analyses were carried out at a flow rate of 1 mL/minute with the UV/VIS detector set at 254 nm. The injection volume was 5 μL.
# (§6) A standard solution consisting of 74.8 μg/mL of sodium phenytoin in mobile phase was injected three times before and three times after each series of analyses. Each unknown sample was injected three times without dilution. The peak areas at 254 nm were recorded and averaged for each time point. The amount of sodium phenytoin in solution at each time point was calculated from the line equation of the calibration curve: […]
# [4] = Nonintrinsic dissolution in water; assay type: physicochemical
# Procedure: as §2, §3
# The rates of dissolution of SPM and SPA were compared. […] These studies were conducted by slurrying sieved (<75 μm) sodium phenytoin powder in pure water and measuring the concentrations in solution at various times by HPLC. Unfortunately, solid crystallized from the solutions withdrawn for analysis as they cooled, rendering the data invalid for determination of dissolution rate. Even so, all of the samples withdrawn contained about 5 mg/mL of sodium phenytoin, including those withdrawn 5 minutes after the slurries were prepared. […] A decrease in the concentration of dissolved sodium phenytoin with time is consistent with the reported reaction of sodium phenytoin with acids, even carbonic acid formed by dissolution of atmospheric carbon dioxide in water, to give relatively water-insoluble phenytoin.
# as §5, §6
# [5] = Drying of SPM under low pressure, XRPD of resulting solid; assay type: physicochemical; settings: about 1 torr, ambient temperature, 24 hours
# Procedure: Any residual dichloromethane should evaporate readily from the solid under ambient conditions. To determine if solvent evaporation could be ensured by drying under low-pressure conditions, a portion of the SPM sample was kept under about 1 torr pressure at ambient temperature for 24 hours.
# [6] = Solid form interconversion under tableting pressure (XRPD); assay type: physicochemical; settings: XRPD of crushed tablets
# Procedure: as §2, §4
# [7] = assay type: physicochemical
# Procedure: as §1
# [8] = all humidities utilized, ambient temperature
smiles,measurement,setting,value
"O=C1NC(=O)C(c2ccccc2)(c2ccccc2)N1 [SPA, sodium phenytoin anhydrate, reference compound]",Percent change based on average of final two weights,[1]; 58% RH,+24%
same,Percent change based on average of final two weights,[1]; 75% RH,+25%
same,Percent change based on average of final two weights,[1]; 84% RH,+25%
same,weight gained on reaching constant weight,[1]; [8],25%
same,weight loss accompanying the endothermic transitions,"[2]; TGA, transitions at 364° C. and 409° C.",72%
same,"concentration, Run 1",[3]; 1 min,1730 ng/mL
same,"concentration, Run 2",[3]; 1 min,1680 ng/mL
same,"concentration, Run 3",[3]; 1 min,3360 ng/mL
same,"concentration, average",[3]; 1 min,2260 ng/mL
same,"concentration, Run 1",[3]; 5 min,11710 ng/mL
same,"concentration, Run 2",[3]; 5 min,12240 ng/mL
same,"concentration, Run 3",[3]; 5 min,19910 ng/mL
same,"concentration, average",[3]; 5 min,14620 ng/mL
same,"concentration, Run 1",[3]; 10 min,23270 ng/mL
same,"concentration, Run 2",[3]; 10 min,23840 ng/mL
same,"concentration, Run 3",[3]; 10 min,57430 ng/mL
same,"concentration, average",[3]; 10 min,34840 ng/mL
same,"concentration, Run 1",[3]; 20 min,47050 ng/mL
same,"concentration, Run 2",[3]; 20 min,60830 ng/mL
same,"concentration, Run 3",[3]; 20 min,144620 ng/mL
same,"concentration, average",[3]; 20 min,87170 ng/mL
same,"concentration, Run 1",[3]; 40 min,112230 ng/mL
same,"concentration, Run 2",[3]; 40 min,139740 ng/mL
same,"concentration, Run 3",[3]; 40 min,193120 ng/mL
same,"concentration, average",[3]; 40 min,148360 ng/mL
"O=C1NC(=O)C(c2ccccc2)(c2ccccc2)N1 [SPM, sodium phenytoin monohydrate]",Percent change based on average of final two weights,"[1]; 58% RH, monohydrate",-10%
same,Percent change based on average of final two weights,"[1]; 75% RH, monohydrate",-10%
same,Percent change based on average of final two weights,"[1]; 84% RH, monohydrate",-9%
same,weight lost on reaching constant weight,[1]; [8],10%
same,endothermic transition temperature,"[2]; DSC, nitrogen, 10° C./minute, monohydrate",about 65 °C
same,weight loss accompanying the low-temperature endothermic transition,"[2]; TGA, transition at about 65° C.",5%
same,amount of sodium phenytoin at extended reaction times versus earlier samples,[4]; 24 and 72 hours,appeared to be less than the amount found in the earlier samples
same,dissolution rate in water,[4]; nonintrinsic dissolution experiments,high enough that differences could not be determined
same,sodium phenytoin in samples withdrawn,"[4]; pure water, including 5 minutes after slurries were prepared, data invalid for dissolution rate",about 5 mg/mL
same,dissolution in water,"[4]; sieved powder (<75 μm), pure water",dissolve rapidly and extensively in water
same,"concentration, average","[3]; 1 min, monohydrate",3300 ng/mL
same,"concentration, Run 1","[3]; 1 min, monohydrate",2420 ng/mL
same,"concentration, Run 2","[3]; 1 min, monohydrate",2210 ng/mL
same,"concentration, Run 3","[3]; 1 min, monohydrate",5260 ng/mL
same,time to complete dissolution of tablets,[3]; 90% ethanol/10% water,15 to 40 min
same,dissolution rate relative to SPA,"[3]; 90% ethanol/10% water, high degree of imprecision",dissolves more rapidly than does SPA
same,"concentration, average","[3]; 5 min, monohydrate",39460 ng/mL
same,"concentration, Run 1","[3]; 5 min, monohydrate",44780 ng/mL
same,"concentration, Run 2","[3]; 5 min, monohydrate",25240 ng/mL
same,"concentration, Run 3","[3]; 5 min, monohydrate",48380 ng/mL
same,"concentration, average","[3]; 10 min, monohydrate",92380 ng/mL
same,"concentration, Run 1","[3]; 10 min, monohydrate",99180 ng/mL
same,"concentration, Run 2","[3]; 10 min, monohydrate",70050 ng/mL
same,"concentration, Run 3","[3]; 10 min, monohydrate",107910 ng/mL
same,"concentration, Run 2",[3]; 15 min,120280 ng/mL
same,"concentration, Run 3",[3]; 15 min,153220 ng/mL
same,"concentration, average",[3]; 15 min,136750 ng/mL
same,"concentration, average","[3]; 20 min, monohydrate",166110 ng/mL
same,"concentration, Run 1","[3]; 20 min, monohydrate",166110 ng/mL
same,form change on drying under low pressure,[5],these conditions caused dehydration
same,solid form interconversion under pressure used to make tablets,[6],no solid form interconversion occurred
same,stability and physical properties compared with sodium phenytoin anhydrate,[7],greatly improved stability and physical properties
